The values below come from paper PMC6835510, “Magnificamide, a β-Defensin-Like Peptide from the Mucus of the Sea Anemone Heteractis magnifica, Is a Strong Inhibitor of Mammalian α-Amylases” (Marine Drugs, 2019).

Like-named read-outs stand apart in the source and are kept apart here. Bridge positions count the residues as written; N and C are the ends. Ends that are not written are not given here.

In series [1] the test system is human saliva α-amylases (HSA). Conditions: cited from earlier work. The text has this: It covers all age groups of the population, and recently it has spread epidemiologically among children and adolescents. The blood glucose levels of diabetic patients reaches abnormally high values, which leads to serious damage to many body systems, especially nerves and blood vessels, causing heart and kidney diseases, blindness, and even the amputation of limbs. The preferred way to maintain ...

In series [2] the target is T1, porcine pancreatic α-amylase (PPA) (Sus scrofa, UniProt P00690).
T1 construct: purchased Sigma Aldrich A4268
T1 sequence (P00690 16-511): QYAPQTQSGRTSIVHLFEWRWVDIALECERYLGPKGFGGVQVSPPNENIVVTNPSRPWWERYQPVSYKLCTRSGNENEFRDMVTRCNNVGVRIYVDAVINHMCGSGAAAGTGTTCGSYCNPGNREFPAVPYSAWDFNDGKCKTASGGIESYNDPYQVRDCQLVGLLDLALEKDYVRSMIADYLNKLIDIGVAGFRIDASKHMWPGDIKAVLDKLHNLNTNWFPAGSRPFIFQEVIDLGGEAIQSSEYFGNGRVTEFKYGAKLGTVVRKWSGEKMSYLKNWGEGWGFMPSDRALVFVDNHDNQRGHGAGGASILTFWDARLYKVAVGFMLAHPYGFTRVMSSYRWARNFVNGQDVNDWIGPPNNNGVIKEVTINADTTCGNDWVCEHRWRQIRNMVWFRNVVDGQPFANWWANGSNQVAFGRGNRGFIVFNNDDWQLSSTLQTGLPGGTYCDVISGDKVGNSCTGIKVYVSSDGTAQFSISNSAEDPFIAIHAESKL
Conditions: cited from earlier work. The text has this: It covers all age groups of the population, and recently it has spread epidemiologically among children and adolescents. The blood glucose levels of diabetic patients reaches abnormally high values, which leads to serious damage to many body systems, especially nerves and blood vessels, causing heart and kidney diseases, blindness, and even the amputation of limbs. […] Recently, as a result of the proteomic analysis of the sea anemone H. magni ...

The target of series [3] is human pancreatic α-amylase (HPA). Conditions: Table 5, ref [11]; cited from earlier work. The text has this: Recently, as a result of the proteomic analysis of the sea anemone H. magni ...
The target of series [4] is human salivary α-amylase (HSA) (Homo sapiens, UniProt P0DUB6). The experiment in a line: Determination of Ki against human saliva α-amylase (Morrison). Type of series: biochemical. Conditions: pH 7, Table 5 summary, own value; 37 °C, pH 7.0, CNPG3, Morrison fit; read-out: Ki, M (HSA) (converted). Here is the method: For a quantitative assessment of tight-binding inhibitor potency, Morrison’s method was applied. This method uses the Morrison quadratic equation (Equation (1)) for fitting inhibitor-response data and determining Ki app as a nonlinear regression parameter. (1) υ/υo=1−([E]+[I]+Kiapp)−([E]+[I]+Kiapp)^2−4[E][I]/2[E]o
Kinetic assays were carried out at 37 °C in 50 mM sodium phosphate and 100 mM sodium chloride (pH 7.0). 2-Chloro-4-nitrophenyl-α-maltotrioside (CNPG3) (Sigma Aldrich, St. Louis, MO, USA) was used as the substrate and the optical absorption of the 2-chloro-4-nitrophenol was measured at 405 nm. Reactions were run with final [CNPG3] = 1 mM ([S]/KM = 1.41, KM = 0.71 mM), nominal [E] = 20 nM for PPA, [CNPG3] = 3.3 mM ([S]/KM = 0.97, KM = 3.4 mM), and nominal [E] = 100 nM for HSA to provide sufficient analytical signal. Inhibitor dilution schemes were optimized considering recommendations in [34].
The enzyme was pre-incubated with the inhibitor for 10 minutes before the addition of substrate which launched the reaction. Reactions were monitored on an xMark microplate spectrophotometer (BioRad, USA) in the kinetic mode for 30 min. The initial linear steady state region provided initial rate values for each inhibitor concentration (υ), along with uninhibited rate values (υo). Measurements were run in triplicate. […]

The subject of series [5] is 18 subtypes of voltage-gated potassium and voltage-gated sodium channels. The experiment in a line: Electrophysiological screening, overall. Type of series: cell-based. The following applies: 10 µM; Xenopus laevis oocytes; listed as magnificamide. The text has this: For the expression of Nav channels (mammalian rNav1.2, rNav1.4, hNav1.5, mNav1.6 and hNav1.8 channels; the insect channel BgNav1 from Blattella germanica; and the auxiliary subunits rβ1, hβ1, and TipE) and Kv channels (mammalian rKv1.1, rKv1.2, hKv1.3, rKv1.4, rKv1.5, rKv1.6, rKv2.1, hKv3.1, rKv4.2, hKv10.1, and hERG; and Drosophila Shaker’s IR) in Xenopus laevis oocytes; the linearized plasmids were transcribed using the T7 or SP6 mMESSAGE-mMACHINE transcription kit (Ambion, Carlsbad, CA, USA). The harvesting of stage V–VI oocytes from anesthetized female Xenopus laevis frog was previously described. Oocytes were injected with 50 nL of cRNA at a concentration of 1 ng/nL using a microinjector (Drummond Scientific, Broomall, PA, USA). The oocytes were incubated in a solution containing 96-mM NaCl, 2-mM KCl, 1.8-mM CaCl2, 2-mM MgCl2, and 5-mM HEPES (pH 7.4), supplemented with 50 mg/L gentamycin sulfate.
Two-electrode voltage-clamp recordings were performed at room temperature (18–22 °C) using a Geneclamp 500 amplifier (Molecular Devices, Downingtown, PA, USA) controlled by a pClamp data acquisition system (Axon Instruments, Union City, CA, USA). Whole cell currents from oocytes were recorded 1–4 days after injection. The bath solution’s composition was 96-mM NaCl, 2-mM KCl, 1.8-mM CaCl2, 2-mM MgCl2, and 5-mM HEPES (pH 7.4). Toxins were applied directly to the bath. Resistances of both electrodes were kept between 0.8 and 1.5 MΩ. The elicited currents were sampled at 20 kHz (Nav) or 2 kHz (Kv), filtered at 2 kHz (Nav) or 0.5 kHz (Kv) using a four-pole low-pass Bessel filter. Leak subtraction was performed using a -P/4 protocol. […] For the electrophysiological analysis, a number of protocols were applied from a holding potential of −90 mV with a start-to-start interval of 0.2 Hz. Kv1.1–Kv1.6 and Shaker currents were evoked by 250-ms depolarizations to 0 mV followed by a 250 ms pulse to −50 mV from a holding potential of −90 mV. […] All data were analyzed using pClamp Clampfit 10.0 (Molecular Devices, Downingtown, PA, USA) and Origin 7.5 software (Originlab, Northampton, MA, USA).

In series [6] the test system is fungi, Gram-positive or Gram-negative bacteria. The experiment in a line: Antimicrobial screening, overall. Type of series: cell-based. The following applies: 1, 5, 10, 20 µM; listed as magnificamide. Here is the method:
The antimicrobial activity of r-magnificamide was tested against Gram-positive (Staphylococcus aureus ATCC 21027 and Bacillus subtilis ATCC6633), Gram-negative bacteria (Escherichia coli VKPM B-7935 and Pseudomonas aeruginosa ATCC 27853), and the fungus Candida albicans KMM 455 by the agar dilution method. Microbial strains were taken from the American Type Culture Collection (ATCC), Russian National Collection of Industrial Microorganisms (VKPM), and Collection of Marine Microorganisms (KMM) (Pacific Institute of Bioorganic Chemistry FEB RAS). To obtain a microbial lawn, 0.1 mL of a cell suspension (0.5 × 10^8 cells/mL) was uniformly distributed on agar surface in Petri dishes (15 g/L tryptic soy broth, 2 g/L bacto yeast extract, 1 g/L glucose, and 20 g/L agar for bacteria; for fungi 10 g/L of glucose was added). Wells with a diameter of 6 mm were punched into the agar and filled with 100 µL of the peptide solution at concentrations 1, 5, 10, and 20 µM. The plates were then incubated for 18 h at 37 °C for bacteria, and at 30 °C for the fungus. Minimum inhibitory concentration was determined by measuring the clear zone of inhibition around each well. All assays were performed independently three times.

The target in series [7] is porcine pancreatic α-amylase (porcine) (UniProt P00690). The experiment in a line: enzyme inhibition kinetics (Morrison tight-binding fit); 37 °C, 50 mM sodium phosphate, 100 mM sodium chloride, pH 7.0; substrate CNPG3 (1 mM with nominal 20 nM PPA; 3.3 mM with nominal 100 nM HSA); enzyme pre-incubated with inhibitor 10 min; Ki from Ki app assuming a competitive mode of inhibition; triplicate.

For series [8] the following is noted: due to β-sandwich fold; ref [17]; cited from earlier work. The text has this:
The medicines based on proteins and peptides are poorly represented in the pharmacological market, but attract the interest of specialists due to their high selectivity and effectiveness, combined with relative safety and good tolerability. A large number of proteinaceous α-amylase inhibitors have been isolated from plants, but they are highly specific and interacted with plant α-amylases to control the breakdown of stored starch or with insect α-amylases for defense. Several very effective proteinaceous inhibitors of mammalian, but not plant or microbial α-amylases were found in bacter ...

human salivary α-amylase (HSA), sequence (P0DUB6 16-511): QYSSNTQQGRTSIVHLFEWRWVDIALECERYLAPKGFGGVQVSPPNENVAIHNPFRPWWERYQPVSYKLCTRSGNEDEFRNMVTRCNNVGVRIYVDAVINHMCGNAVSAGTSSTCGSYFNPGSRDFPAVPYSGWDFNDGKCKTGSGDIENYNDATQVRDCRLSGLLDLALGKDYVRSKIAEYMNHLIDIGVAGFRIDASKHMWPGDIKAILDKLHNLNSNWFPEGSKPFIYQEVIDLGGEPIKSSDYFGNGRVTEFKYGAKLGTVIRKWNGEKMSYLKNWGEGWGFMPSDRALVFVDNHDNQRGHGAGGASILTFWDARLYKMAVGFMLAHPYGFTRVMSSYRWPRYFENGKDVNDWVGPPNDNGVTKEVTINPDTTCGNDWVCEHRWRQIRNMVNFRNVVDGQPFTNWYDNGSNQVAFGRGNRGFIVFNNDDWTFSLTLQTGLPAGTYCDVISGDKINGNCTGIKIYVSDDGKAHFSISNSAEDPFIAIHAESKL

Turning to `C[C@H]1O[C@H](O[C@H]2[C@H](O)[C@@H](O)[C@@H](O[C@H]3[C@H](O)[C@@H](O)C(O)O[C@@H]3CO)O[C@@H]2CO)[C@H](O)[C@@H](O)[C@@H]1N[C@H]1C=C(CO)[C@@H](O)[C@H](O)[C@H]1O` (some centres unmarked) [Acarbose], the Ki in series [1] (Table 5, ref [9], read-out: Ki, M (HSA) (converted)) was 1300 nM; in series [1] (ref [9], read-out: Ki against HSA) it was 1260 nM.
“Helianthamide: α-amylase inhibitor of the β-defensins family from Stichodactyla helianthus (44 aa, 4716 Da); PDB ID 4XON (ESGNSCYIYHGVSGICKASCAEDEKAMAGMGVCEGHLCCYKTPW; three disulfide bridges; the text prints the PDB ID as 4XON, read as 4X0N (complex with porcine pancreatic alpha-amylase)) [reference compound]”: the Ki in series [2] (Table 5, ref [18]) is 0.1 nM.
Turning to Montbretin A, the Ki in series [3] is 8.1 nM.
On to “SEGTSCYIYHGVYGICKAKCAEDMKAMAGMGVCEGDLCCYKTPW (disulfide 6-38, 16-33, 20-39) [Magnificamide]”, for which the Ki in series [4] was 7.7 nM. Moreover, the “Ion channel modulating activity, overall” value in series [5] is reported as “found no activity”. Further, in series [6], the “Antimicrobial activity, overall” value is recorded as “No antimicrobial activity against Gram-positive, Gram-negative bacteria, or fungi was observed”.
Take recombinant magnificamide (peptide): the Ki in series [7] came out at 0.17 nM.

B1: Tendamistat (HOE-467A): α-amylase inhibitor from Streptomyces tendae 4158, Mr 7958 Da (protein, UniProt P01092 31-104, looked up)
Alpha-amylase inhibitor …: DTTVSEPAPSCVTLYQSWRYSQADNGCAQTVTVKVVYEDDTEGLCYAVAPGQITTVGDGYIGSHGHARYLARCL
Turning to B1, the immunogenicity entry in series [8] was “high immunogenicity”. In series [2] (Table 5, ref [13]), the Ki was 0.009 nM.

B2: Parvulustat (Z-2685): α-amylase inhibitor from Streptomyces parvullus FH-1641, Mr 8129 Da (protein)
chain: ATGSPVAECVEYFQSWRYTDVHNGCADAVSVTVEYTHGQWAPCRVIEPGGWATFAGYGTDGNYVTGLHTCDPATPSGV
modifications: two disulfide bridges; expected 78 aa, 8129 Da
As to B2, the Ki in series [2] (Table 5, ref [16]) was 0.028 nM.
